Tests used:
[1] = test system: neutrophil extracellular trap (NET) formation; test: In vitro NET formation by stimulated human PMNs (live cell imaging, NET-associated histone H3 release); assay type: cell-based
Description: Qualitative assessment of NET formation was performed as previously reported (see Yost C C, et al., Blood. 2009; 113 (25):6419-27 and McInturff A M, et al., Blood. 2012; 120 (15):3118-25). Briefly, primary PMNs isolated from preterm infants, healthy term infants, and healthy adults (2×10^6 cells/mL) were incubated with control buffer or stimulated with indicated agonists or bacteria for 1 hour at 37° C. in 5% CO2/95% air on glass coverslips coated with poly-L-lysine. For selected experiments, primary PMNs were pre-incubated with autologous plasma, cord blood plasma, nNIF (0.2-70 nM), CRISPP (0.2-70 nM), nNIF-SCR (1 nM), or CRISPP-SCR (1 nM) for one hour prior to stimulation. After pre-incubation and/or stimulation, PMNs were gently washed with PBS and incubated with a mixture of cell permeable (SYTO® Green, MOLECULAR PROBES®) and impermeable (SYTOX® Orange, MOLECULAR PROBES®) DNA fluorescent dyes. Confocal microscopy was accomplished using a FV1000 IX81 confocal microscope and FLUOVIEW™ software (OLYMPUS™). Both 20× and 60× objectives were used. Z-series images were obtained at a step size of 1 μm over a range of 20 μm for each field. FLUOVIEW™ and ADOBE™ PHOTOSHOP™ CS2 software was used for image processing.
Using BSL 2 safety protocols, primary PMNs isolated from healthy adults (2×10^6 cells/mL) were incubated with mock infection buffer or live dengue virus (M010.05) as for live cell imaging. After a 1-hour incubation, the infected PMNs were fixed with 2% p-FA for 10 minutes prior to incubation with fluorescently-labeled, cell-permeable and cell-impermeable DNA dyes, and imaged as for live cell imaging using confocal microscopy.
NET-associated histone H3 content was determined as previously described (see McInturff A M, et al., Blood. 2012; 120 (15):3118-25). After live cell imaging of control and stimulated primary PMNs (2×10^6/mL; various agonists), the cells were incubated with PBS containing DNase (40 U/mL) for 15 minutes at room temperature to break down and release NETs formed in response to stimulation. The supernatant was gently removed and centrifuged at 420×g for 5 minutes. The cell-free supernatant was then mixed 3:1 with 4× Laemmli buffer prior to western blotting. A polyclonal primary antibody against human histone H3 protein (CELL SIGNALING®) and infrared-conjugated secondary antibodies (LI-COR®) were used. Imaging and densitometry were performed on the ODYSSEY® infrared imaging system)(LI-COR®). This assay was previously validated as a surrogate for NET formation under in vitro conditions (see McInturff A M, et al., Blood. 2012; 120 (15):3118-25) as employed in the present studies.
Without being bound by any specific theory, it was hypothesized that placentally expressed HTRA1, a serine protease, regulates the formation of NET-inhibitory peptides through cleavage of AAT. To test this hypothesis, term and preterm placenta were assessed for HTRA1 expression via western blotting. HTRA1 and AAT plasma expression from term and preterm infants and adults were determined by ELISA. Bioactive (0.5 μg) or placental eluted HTRA1 was incubated with AAT (8 μM) for 18 hours at 37° C. Carboxy-terminus fragments of AAT were detected using western blotting and mass spectrometry. The reaction products were incubated for 1 hour with PMNs isolated from healthy adults prior to LPS stimulation (100 ng/mL) and assessed for NET formation using live cell imaging. Reactive oxygen species were assessed using flow cytometry, chemotaxis using a modified Boyden chamber assay, and bacterial killing using E. coli.

[2] = test system: C57BL/6 mice challenged with LPS; test: Mouse model of systemic inflammation induced by LPS (endotoxemia), survival; assay type: in vivo; details: i.p. LPS, first experiment, n=6 per group
Description: Animals with no treatments or given LPS alone were studied in parallel (n≥10 mice for each condition). **P<0.01, log-rank (Mantel-Cox) statistical tool used. The survival difference between nNIF-LPS and CRISPP-LPS compared to CRISPP-SCR-LPS trended toward significance (§ P=0.051).
Control mice were i.p. injected with saline alone. Fluid resuscitation and antibiotic treatment were not used in these experiments. Survival was assessed over 50 or 72 hour intervals. All mice were included in the final survival analysis.

[3] = test system: NET formation in E. coli peritonitis; test: Mouse model of E. coli peritonitis (in vivo NET formation); details: C57BL/6 mice, 10 mg/kg i.p. 1 hour before E. coli i.p., 3 hours
Excerpt: FIG. 8A depicts results of peritoneal fluid NET formation (red fluorescence, yellow arrow) assessed by live cell imaging (60× magnification, scale bar=50 μm) and histone H3 release (red dashed line=baseline arbitrarily set at 1). Three mice per group. One way ANOVA with Tukey's post hoc testing, ***P<0.001 for CRISPP and nNIF versus CRISPP-SCR.
FIG. 8B depicts results of NET formation on the surfaces of peritoneal membranes (red fluorescence, yellow arrows) that was quantified by counting the number of NETs that crossed standardized grid lines in […] (60× magnification; scale bar=50 μm) using IMAGEJ™ software. A second experiment yielded a similar pattern. FIGS. 8A and 8B depict C57BL/6 mice that were not pretreated or pretreated with nNIF, CRISPP, or CRISPP-SCR (10 mg/kg i.p.; 1 hour) and were inoculated with E. coli (4.5×10^7 bacteria i.p.). After 3 hours, the animals were sacrificed, and peritoneal fluid (FIG. 8A) and membranes (FIG. 8B) were collected for analysis.
FIG. 8C depicts C57BL/6 mice that were not pretreated (left two bars) or that were pretreated with CRISPP, nNIF, or CRISPP-SCR, and that were inoculated with E. coli i.p. as in FIGS. 8A and 8B. Neutrophil numbers in peritoneal fluid were counted after 3 hours (3-5 mice/group). […]
FIG. 8E depicts peritoneal fluid NET formation, imaged and measured as in FIG. 8A (10 mice/group). *P<0.05 for CRISPP/E. coli and nNIF/E. coli compared to CRISPP-SCR/E. coli and E. coli.
FIG. 8F depicts NET formation on peritoneal membrane surfaces, imaged and quantitated as in FIG. 8B (3 mice in each group). *P<0.05 for E. coli versus control (red dashed line); **P<0.01 for CRISPP-SCR/E. coli versus control; †P<0.05 for CRISPP/E. coli and nNIF/E. coli versus CRISPP-SCR/E. coli. One way ANOVA with Tukey's post-hoc testing applied in FIGS. 8E and 8F. In FIGS. 8E and 8F, Swiss-Webster mice that were not pretreated or that were pretreated with nNIF, CRISPP, or CRISPP-SCR were inoculated with E. coli i.p. as in FIGS. 8A and 8B. After 3 hours, peritoneal fluid and membranes were collected. FIGS. 8A-8F indicate that nNIF and CRISPP inhibit in vivo NET formation.
(§1) C57/BL6 or Swiss-Webster mice were pretreated in blinded fashion with CRISPP (10 mg/kg), nNIF (10 mg/kg), or CRISPP-SCR (10 mg/kg) by i.p. injection 1 hour prior to infection (E. coli, 4.5×10^7 cfu/mouse, i.p.) or inoculation (LPS, 25 mg/kg, i.p.) (SIGMA-ALDRICH®). Control mice were injected with saline alone. The mice were sacrificed in a CO2 chamber 3 hours post-infection/inoculation, and the peritoneal fluid and membrane samples were harvested. Briefly, the abdomen was disinfected and opened in the midline without injuring the muscle. The peritoneal cavity was lavaged with sterile saline solution (1 mL) and analyzed for in vivo NET formation, bacteriology, and leukocyte accumulation. NETs in the peritoneal fluid were qualitatively and quantitatively analyzed using live cell imaging with confocal microscopy and NET-associated histone H3 release assays. NETs on the serosal surface of the peritoneal membrane were assessed quantitatively using live cell imaging, followed by standardized grid analysis of five randomly selected high-power visual fields per tissue sample (IMAGEJ™ software, NIH). Peritoneal bacterial colony forming unit (cfu) counts were quantified by permeabilizing all recovered leukocytes with 0.1% Triton X-100 for 10 minutes and performing serial dilutions and bacterial cultures on 5% sheep blood agar plates (HARDY DIAGNOSTICS™). After a 24-hour incubation, bacterial counts were determined. Total leukocyte counts in the peritoneal lavage were determined in Neubauer chambers using an optical microscope after dilution in Turk's solution (2% acetic acid). Differential leukocyte analysis was performed using a 60× oil immersion objective to assess morphology of cyto-centrifuged cells stained with May-Gruenwald-Giemsa dye. All mice were included in the final analysis.

[4] = test system: LPS-induced peritoneal NET formation; test: Mouse model of LPS-induced peritonitis (in vivo NET formation); details: C57BL/6 mice, i.p. LPS
Description: as §1

For “V_MDITPMQVGPLKMKPKVIFNPFKLFENF [CRISPP-SCR, scrambled control peptide of CRISPP, reference compound]”, the “PMA-stimulated NET deployment” value ([1]; PMA 20 nM, peptides 1 nM, 1 hour preincubation) was “not”, the “NET formation triggered by LPS” value ([1]; adult PMNs preincubated with agent, LPS 100 ng/mL, 1 hour) was “does not” and the “animals alive at 50 hours” value [2] was 30%. For the same substance, the “NET formation by peritoneal fluid PMNs” value [3] was “not”, the “deployment of NETs on the peritoneal surface” value [3] was “not” and the “LPS-induced peritoneal NET formation” value [4] was “not”.

— patent US10857201B2, “NNIF and nNIF-related peptides and related methods” (UNIVERSITY OF UTAH RESEARCH FOUNDATION, priority 2016, dated 2020)
